These results are taken from patent US20160175288A1, “MACROCYCLIC LACTONE COMPOUNDS AND METHODS FOR THEIR USE” (Elixir Medical Corporation, priority 2008, published 2016).

One data set has as its system MMP-9. Briefly: cytokine inhibition in LPS-activated macrophages, ELISA (MMP-9). It counts as cell-based. The following applies: 10 nM. As for the experimental part:
(§1) In cell culture studies, macrophages were activated to secrete cytokines such as MMP-9 and MCP-1 by treating the cells to E Coli lippopolysaccharide (LPS). Inhibition of these cytokines upon treatment of the activated macrophages with Myolimus and rapamycin with 10 nM concentration was tested using ELISA assay.
A general note: An ELISA detects its analyte on a solid surface through an enzyme-linked reagent.

The conditions of data set [1]: cited from earlier work.
The next data set deals with human smooth muscle cell. Briefly: in vitro human smooth muscle cell culture testing, incorporated thymidine. It counts as cell-based. The following applies: exposure for 8 hours, concentrations 0.0001-1 μM. As for the experimental part:
The amounts of incorporated thymidine for samples of Myolimus of varying concentrations (0.0001, 0.001, 0.01, 0.1, and 1 μM) and of rapamycin of varying concentrations (0.0001, 0.001, 0.01, 0.1, and 1 μM) were measured after exposure for 8 hours (as shown in FIG. 1). The IC50 of both Myolimus and Rapamycin was 0.1 nM indicating potent anti-proliferative properties.

A further data set has as its system MCP-1. Briefly: cytokine inhibition in LPS-activated macrophages, ELISA (MCP-1). It is filed as cell-based. Conditions: 10 nM. As for the experimental part: as §1
The conditions of data set [2]: in vivo; cited from earlier work.

Molecules are shown by their SMILES.

Take `CO[C@H]1C[C@@H]2CC[C@@H](C)[C@@](O)(O2)C(=O)C(=O)N2CCCC[C@H]2C(=O)O[C@H]([C@H](C)C[C@@H]2CC[C@@H](O)[C@H](OC)C2)CC(=O)[C@H](C)/C=C(\C)[C@@H](O)[C@@H](OC)C(=O)[C@H](C)C[C@H](C)/C=C/C=C/C=C/1C` [Rapamycin]: in the data set on MMP-9, the “production of MMP-9” value is “increased the production”. Further, the solubility in water entry in data set [1] is on record as “only very slightly soluble”. The same compound gave an IC50 with human smooth muscle cell of 0.1 nM. The “production of MCP-1” value with MCP-1 was “did not have any impact”. In data set [2], the bioavailability result was “very low and variable”.

`CO[C@H]1C[C@@H]2CC[C@@H](C)[C@@](O)(O2)C(=O)C(=O)N2CCCC[C@H]2C(=O)O[C@H]([C@H](C)C[C@@H]2CC[C@@H](O)[C@H](OC)C2)CC[C@H](C)/C=C(\C)[C@@H](O)[C@@H](OC)C(=O)[C@H](C)C[C@H](C)/C=C/C=C/C=C/1C` [Myolimus, 32-deoxorapamycin]: the “production of MMP-9” value in the data set with MMP-9 is “reduced the production”; with MMP-9 (listed as myolimus), “inhibiting production”. Also, the IC50 in the data set on human smooth muscle cell worked out at 0.1 nM. For the same compound, the “production of MCP-1” value in the data set with MCP-1 is reported as “reduced the production”; with MCP-1 (listed as myolimus) it was “inhibiting the production”.

For orientation: IC50 means the point on the concentration scale where inhibition reaches its midpoint. A low value points to greater potency.
